Legend:
Type in all cases: cell-based
HCT-15 = experiment: MTT test, HCT-15; conditions: Homo sapiens, 10^−5 M, 72 hours, control = 100%, mean ± SEM, read-out: average optical density (MTT), percentage relative to control
Procedure: (§1) The influence of the compounds of formulae (I) and (Ia) on non-clonogenic cells was evaluated with the aid of the MTT calorimetric test.
(§2) The principle of the MTT test is based on the mitochondrial reduction, by the metabolically active live cells, of the yellow-colored product MTT (3-(4,5-dimethylthiazol-2-yl)-2,5-diphenyltetrazolium bromide) to a blue-colored product, formazan. The amount of formazan thus obtained is directly proportional to the amount of live cells present in the culture well(s). This amount of formazan is measured by spectrophotometry.
(§3) The cell lines are maintained as a monolayer culture at 37° C. in stoppered culture dishes containing MEM 25 MM HEPES (Minimum Essential Medium) base medium. This medium is suited to the growth of a range of various mammalian diploid or primary cells. This medium is then supplemented with:
(§4) an amount of 5% of FCS (Foetal Calf Serum) decomplemented at 56° C. for 1 hour,
(§5) 0.6 mg/ml of L-glutamine,
(§6) 200 μg/ml of streptomycin,
(§7) The 12 human cancer cell lines which were used were obtained from the American Type Culture Collection (ATCC, Rockville, Md., USA). These 12 cell lines are:
(§8) HTC-15 (code ATCC: CCL-225) and LoVo (code ATCC: CCL-229) which are two colorectal cancers,
(§9) Experimentally: 100 μl of a cell suspension containing 20 000 to 50 000 (depending on the cell type used) cells/ml of culture medium are inoculated in 96-well flat-bottomed multi-well plates and are incubated at 37° C., under an atmosphere comprising 5% CO2 and 70% humidity. After incubation for 24 hours, the culture medium is replaced with 100 μl of fresh medium containing either the various test compounds at concentrations ranging from 10^−5 to 10^−10 M or the solvent used to dissolve the test products (control condition). After incubation for 72 hours under the above conditions, the culture medium is replaced with 100 μl of a yellowish solution of MTT dissolved at a rate of 1 mg/ml in RPMI 1640. The microplates are reincubated for 3 hours at 37° C. and are then centrifuged for 10 minutes at 400×g. The yellowish solution of MTT is removed and the blue formazan crystals formed in the cell are dissolved in 100 μl of DMSO. The microplates are then shaken for 5 minutes. The intensity of the resulting blue coloration, and thus of the conversion of the yellow product MTT into blue formazan by the cells that are still alive at the end of the experiment, is quantified by spectrophotometry using a Dynatech Immunoassay System machine at wavelengths of 570 nm and 630 nm corresponding, respectively, to the maximum absorption wavelengths of formazan and to the background noise. Software incorporated in the spectrophotometer calculates the average optical density values and the standard deviation (SD) and standard error of mean (SEM) values.
(§10) By way of example, the results of the average optical density, expressed as a percentage relative to the average optical density measured under the control condition (set equal to 100%), obtained at a concentration of 10^−5 M on the 12 abovementioned tumor cell lines are given in Table II.

SW1088 = experiment: MTT test, SW1088; conditions: Homo sapiens, 10^−5 M, 72 hours, control = 100%, mean ± SEM, read-out: average optical density (MTT), percentage relative to control
Procedure: as §1, §2, §3, §4, §5, §6, §7
SW1088 (code ATCC: HTB-12) which is an astrocytoma,
as §9, §10

MCF7 = experiment: MTT test, MCF7; conditions: Homo sapiens, 10^−5 M, 72 hours, control = 100%, mean ± SEM, read-out: average optical density (MTT), percentage relative to control
Procedure: as §1, §2, §3, §4, §5, §6, §7
T-47D (code ATCC: HTB-133) and MCF7 (code ATCC: HTB-22) which are two breast cancers,
as §9, §10

LoVo = experiment: MTT test, LoVo; conditions: Homo sapiens, 10^−5 M, 72 hours, control = 100%, mean ± SEM, read-out: average optical density (MTT), percentage relative to control
Procedure: as §1, §2, §3, §4, §5, §6, §7, §8, §9, §10

U-373MG = experiment: MTT test, U-373MG; conditions: Homo sapiens, U373 MG, 10^−5 M, 72 hours, control = 100%, mean ± SEM, read-out: average optical density (MTT), percentage relative to control
Procedure: as §1, §2, §3, §4, §5, §6, §7
U-373MG (code ATCC: HTB-17) and U-87MG (code ATCC: HTB-14) which are two glioblastomas,
as §9, §10

A-427 = experiment: MTT test, A-427; conditions: Homo sapiens, 10^−5 M, 72 hours, control = 100%, mean ± SEM, read-out: average optical density (MTT), percentage relative to control
Procedure: as §1, §2, §3, §4, §5, §6, §7
A549 (code ATCC: CCL-185) and A-427 (code ATCC: HTB-53) which are two non-small-cell lung cancers,
as §9, §10

T24 = experiment: MTT test, T24; conditions: Homo sapiens, T-24, 10^−5 M, 72 hours, control = 100%, mean ± SEM, read-out: average optical density (MTT), percentage relative to control
Procedure: as §1, §2, §3, §4, §5, §6, §7
J82 (code ATCC: HTB-1) and T24 (code ATCC: HTB-4) which are two bladder cancers,
as §9, §10

Row | SMILES | viability at 10 µM (HCT-15) | viability at 10 µM (SW1088) | viability at 10 µM (MCF7) | viability at 10 µM (LoVo) | viability at 10 µM (U-373MG) | viability at 10 µM (A-427) | viability at 10 µM (T24)
1 | COc1ccc(-c2cc3c(OC)cc(OC)cc3[nH]c2=O)cc1 [CRL8246, 5,7-Dimethoxy-3-(4-methoxyphenyl)-1,2-dihydro-2-quinolinone] | 97.2 ± 5.1% | 108 ± 1.1% | 98.1 ± 1.4% | 109 ± 7% | 96.6 ± 1.2% | 101 ± 0.9% | 109 ± 3.5%
2 | COc1ccc(-c2cc3c(OC)cc(OC)cc3n(CCC#N)c2=O)cc1 [CRL8247, 3-[5,7-Dimethoxy-3-(4-methoxyphenyl)-2-oxo-1,2-dihydro-1-quinolinyl]propanenitrile] | 87.4 ± 2.5% | 85.8 ± 3.6% | 78.9 ± 1.1% | 66.4 ± 2.5% | 68.7 ± 2.8% | 57 ± 1.5% | 77.8 ± 2.7%
3 | COc1ccc(-c2cc3c(OC)cc(OC)cc3n(CCc3nnn[nH]3)c2=O)cc1 [CRL8256, 1-[2-(1H-1,2,3,4-Tetrazol-5-yl)ethyl]-5,7-dimethoxy-3-(4-methoxyphenyl)-1,2-dihydro-2-quinolinone] | 73.9 ± 3.6% | 72.1 ± 3.3% | 81.8 ± 1.6% | 93 ± 2.3% | 76.1 ± 2.6% | 81.1 ± 2.9% | 78.2 ± 2.6%
4 | CCN(CC)C(=O)CCn1c(=O)c(-c2ccc(OC)cc2)cc2c(OC)cc(OC)cc21 [CRL8283, N,N-Diethyl-3-[5,7-dimethoxy-3-(4-methoxy-phenyl)-2-oxo-1,2-dihydro-1-quinolinyl]propanamide] | 58.2 ± 4.3% | 84.7 ± 3.1% | 76.2 ± 0.9% | 97.3 ± 3.6% | 93.4 ± 1.5% | 73.1 ± 1.7% | 72.9 ± 0.9%
5 | CCN(CC)C(=O)Cn1c(=O)c(-c2ccc(OC)cc2)cc2c(OC)cc(OC)cc21 [CRL8315, N,N-Diethyl-2-[5,7-dimethoxy-3-(4-methoxy-phenyl)-2-oxo-1,2-dihydro-1-quinolinyl]acetamide] | 87.9 ± 3.3% | 89.1 ± 0.6% | 96.2 ± 1.7% | 78.9 ± 2.1% | 68.9 ± 2.2% | 92.6 ± 2.1% | 89.6 ± 2.1%
6 | COc1ccc(-c2cc3c(OC)cc(OC)cc3n(CCN(C)C)c2=O)cc1 [CRL8316, 1-[2-(Dimethylamino)ethyl]-5,7-dimethoxy-3-(4-methoxyphenyl)-1,2-dihydro-2-quinolinone] | 79.8 ± 2.9% | 107 ± 2% | 78.9 ± 4% | 73.9 ± 2.1% | 89.8 ± 2.9% | 79.1 ± 4.8% | 94 ± 3.2%
